Test results reported in patent publication US8883739B2, “Osteocalcin as a treatment for male reproductive disorders” (The Trustees of Columbia University in the City of New York, priority 2010, dated 2014).
Where no end group is shown, it is not given here.

Tests used:
testis explants = assay: Osteocalcin stimulation of testis explants, testosterone RIA; format: cell-based, mouse; details: increasing amounts of osteocalcin (0-100 ng/ml)
Experimental: (§1) Adult mouse Leydig cells were isolated by mechanical dissociation of the testes followed by purification on a 0-90% Percoll gradient (Hunter et al., 1982, Mol. Cell. Endocrinol. 25:35-47; Schumacher et al., 1978, FEBS Lett. 91:333-338). Primary Leydig cells were cultured in Minimal Essential Medium (MEM+GlutaMAX, Invitrogen) supplemented with 1× PenStrep, 25 mM HEPES, pH 7.4 and 0.07% BSA at 33° C. in 5% CO2. After 3 hours of attaching and starvation, cells were washed once with culture medium and then used for experiments. The preparation of testis explants was adapted from Powlin et al., 1998, Toxicol. Sci. 46:61-74. Explants were washed 3 times with PBS 1× and placed in serum free RPMI medium for 2 hours before being used for experiments.
(§2) After 1 hour, an aliquot of medium was collected for measurements of testosterone. Cells were then maintained for 3 additional hours and lysed in 1 ml TRIZOL® (Invitrogen) for RNA isolation.
(§3) Caudal epididymides were minced in 1 ml PBS and the number of cells released counted after 1 hour. The total sperm count was assessed in the final suspension by using a hemacytometer (Dakhova et al., 2009, Endocrinology 150:404-412). Circulating levels of testosterone, estradiol (E2), and progesterone were measured by radioimmunoassay (RIA) from Diagnostic Systems Laboratories (Testosterone RIA DSL-4000, Estradiol RIA DSL-43100, and Progesterone RIA-3900).

TM3 Leydig cells [1] = assay: Anti-phospho-tyrosine Western blot of Leydig cells; format: cell-based, mouse; details: 1 minute
Experimental: (§4) Western blotting was performed according to standard procedures. Frozen testes were homogenized and lysed with 1×RIPA buffer. Membranes were blocked and then incubated overnight with primary antibody in TBST-5% BSA, followed by incubation with appropriate HRP-conjugated secondary antibody. Signals were visualized with ECL. The following primary antibodies were used: anti-phospho-tyrosin (9416), anti-pERK1/2 (4370), anti-ERK1/2 (9102), anti-pCREB (9198), anti-CREB (4820), anti-Cleaved Caspase-3 (Asp175) (9661) (all from Cell Signaling), and anti-tACE (H-300): sc-13973 and anti-CHD5 (H-185): sc-68390 from Santa Cruz; the anti-osteocalcin was described in Ferron et al., 2010, Biochem. Biophys. Res. Comm. 397:691-696.

GPRC6a = target: T1, GPRC6a (Mus musculus, UniProt Q8K4Z6); assay: Receptor binding assay with biotinylated osteocalcin on testis sections
T1 construct: testes from 8-week old mice were snap frozen in liquid nitrogen and 20 μm thick sections were prepared; from tissue; host or cells: mouse testis sections (Leydig cells), 8-week old mice
T1 sequence (Q8K4Z6 21-928): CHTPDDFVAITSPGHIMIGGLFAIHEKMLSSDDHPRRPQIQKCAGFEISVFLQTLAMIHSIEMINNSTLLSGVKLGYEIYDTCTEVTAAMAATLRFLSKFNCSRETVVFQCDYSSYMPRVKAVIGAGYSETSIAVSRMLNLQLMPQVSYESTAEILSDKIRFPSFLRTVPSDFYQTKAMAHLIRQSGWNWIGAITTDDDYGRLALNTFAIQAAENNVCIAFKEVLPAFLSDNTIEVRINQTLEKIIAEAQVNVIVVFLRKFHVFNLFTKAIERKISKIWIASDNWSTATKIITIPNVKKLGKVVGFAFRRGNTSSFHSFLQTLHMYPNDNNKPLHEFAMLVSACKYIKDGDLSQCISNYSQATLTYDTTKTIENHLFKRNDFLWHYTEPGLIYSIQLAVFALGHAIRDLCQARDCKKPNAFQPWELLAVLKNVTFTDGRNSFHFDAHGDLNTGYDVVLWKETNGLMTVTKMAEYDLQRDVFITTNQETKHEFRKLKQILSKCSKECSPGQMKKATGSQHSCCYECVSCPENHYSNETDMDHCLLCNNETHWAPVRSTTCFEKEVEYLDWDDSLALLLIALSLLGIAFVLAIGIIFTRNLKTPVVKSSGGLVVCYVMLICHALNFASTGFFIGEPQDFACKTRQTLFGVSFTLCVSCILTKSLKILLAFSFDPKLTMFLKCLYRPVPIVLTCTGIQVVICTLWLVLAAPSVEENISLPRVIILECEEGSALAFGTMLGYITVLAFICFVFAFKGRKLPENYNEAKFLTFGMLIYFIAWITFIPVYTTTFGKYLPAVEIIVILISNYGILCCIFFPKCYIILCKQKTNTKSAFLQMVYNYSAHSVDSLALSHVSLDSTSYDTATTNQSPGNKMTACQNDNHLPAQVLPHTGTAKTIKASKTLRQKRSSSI
Experimental: For binding studies, testes from 8-week old mice were snap frozen in liquid nitrogen and 20 μm thick sections were prepared and dessicated overnight at +4° C. under vacuum. On the following day, sections were rehydrated in ice-cold binding buffer (50 mM TrisHCl, pH 7.4, 10 mM MgCl2, 0.1 mM EDTA and 0.1% BSA) for 15 minutes and incubated for 1 hour in the presence of biotinylated osteocalcin. […] After 3 washes in cold PBS, sections were incubated for 1 hour in the detection system containing 0.1% BSA (ABC Elite, Vector Laboratories), washed again, and incubated with DAB peroxidase substrate kit (Vector Laboratories) according to the manufacturer's protocol. After a final wash, sections were mounted in water-based mounting medium. As negative controls, sections incubated with the detection system only (ABC Elite and DAB) or OstR−/− testis sections (Basura et al., 2008, Hear. Res. 244:45-50) were used.

WT mice [2] = assay: Daily osteocalcin injections in WT mice for 12 weeks; format: in vivo, mouse
Experimental: WT mice (n=6) were injected daily with either 3 ng/g or 30 ng/g of uncarboxylated osteocalcin for 12 weeks. […] Likewise, serum testosterone levels were increased in osteocalcin-injected mice compared to vehicle-injected mice (FIG. 7D).
as §3
One testis or ovary from each mouse was randomly selected for molecular analysis and the other one was used for histology. Specimens were collected, weighed, and fixed in Bouin's fixative for histological analyses before being dehydrated through graded ethanol, processed for paraffin embedding, and serially sectioned at 5 μm. For histological analysis, sections of testes and ovaries were stained with periodic acid-Schiff and counterstained with hematoxylin. TUNEL labeling was performed using the ApopTag Peroxydase In Situ Apoptosis detection kit (Millipore-57100). Apoptotic indices were determined by counting the total number of TUNEL-positive cells or the number of TUNEL positive spermatocytes for all stage tubules. Approximately 500 tubules were counted on at least 4 cross-sections located at midtestis for each animal.

Leydig cell cultures = assay: Expression of testosterone biosynthesis enzymes in Leydig cell cultures treated with uncarboxylated osteocalcin; format: cell-based, mouse; details: qPCR
Experimental: as §1, §2
(§5) RNA was purified from tissues, primary Leydig cells, or cultured cells using TRIZOL® (Invitrogen). RNA isolation, cDNA preparation, and qPCR analysis was carried out following standard protocols. qPCR analyses were performed using specific quantitative PCR primers from SABiosciences.

WT mice [3] = assay: Circulating testosterone after osteocalcin injection in WT mice; format: in vivo, mouse; details: injection 3 ng/g of body weight, 1, 4 and 8 hours
Experimental: as §3

TM3 Leydig cells [4] = assay: cAMP quantification in Leydig cells; format: cell-based, mouse; details: 30 minutes, 0.5 mM IBMX
Experimental: For cAMP measurements, TM3 Leydig cells were plated in 6 cm dishes (10^7 cells per dish) a day before experiment. Cells were serum starved for 16 hours (in the presence of 0.1% BSA) then pre-incubated in the presence of 0.5 mM IBMX for 30 minutes and stimulated with the indicated concentration of osteocalcin (also in the presence of 0.5 mM IBMX) for 30 minutes. cAMP concentration was measured with the Parameter cAMP kit (R&D Systems, KGE002).

primary Leydig cells [5] = assay: Osteocalcin stimulation of primary Leydig cells, testosterone RIA; format: cell-based, mouse; details: increasing amounts of osteocalcin (0-100 ng/ml)
Experimental: as §1, §2, §3

primary Leydig cells [6] = assay: Measurement of intracellular calcium in primary Leydig cells; format: cell-based, mouse
Experimental: Isolated primary Leydig cells were resuspended in buffer containing 95 mM NaCl, 4.8 mM KCl, 1.2 mM MgSO4, 1.2 mM KH2PO4, 5.6 mM glucose, 25 mM NaHCO3, 1.7 mM CaCl2, 0.25 mM sodium purivate, 1× PenStrep, 20 mM HEPES, 0.3% BSA, pH 7.4 at 37° C. (reagents from Sigma Aldrich, except for sodium pyruvate, PenStrep and HEPES from Invitrogen), plated at the density of 17-25000 cells/well on 96-well plate and placed in an incubator at 33° C., 5% CO2 for 2 hours. Afterward, the FLIPR dye (Calcium Plus Assay Kit Dye, Molecular Devices) diluted in the same buffer supplemented with 2.5 mM probenecid, pH 7.4 was exchanged for the previous medium and incubated with the cells for an additional 30-45 minutes. Following the incubation with the dye, cells were placed in a BD Pathway 855 High-Content Bioimager, recorded for 10-20 seconds to get baseline fluorescence, and then stimulated with doses of osteocalcin ranging from 0.3 to 500 ng/ml as well as control substances: medium, calcium ionophore A23187, 10% FBS, 400 μM Arginine^2+, 100 μM ATP/UTP mix and recorded for an additional 2-5 minutes. The probing time was varied between 1 and 5 seconds. Obtained images were analyzed for the change in fluorescence using ImageJ 1.41.

Leydig cells = assay: CREB phosphorylation Western blot of Leydig cells; format: cell-based, mouse
Experimental: as §4

TM3 Leydig cells [7] = assay: ERK1/2 phosphorylation Western blot of Leydig cells; format: cell-based, mouse
Experimental: as §4

TM3 Leydig cells [8] = assay: qPCR of steroidogenic genes in TM3 Leydig cells treated with osteocalcin; format: cell-based, mouse; details: osteocalcin 0.3 to 300 ng/ml, 2 hours
Experimental: TM3 cells were treated with increasing amounts of osteocalcin and assayed for the expression of genes encoding enzymes of the steroidogenic cascade. […] Thus, whether looked at by in vivo or cell-based assays, osteocalcin promotes testosterone biosynthesis.
Gene expression analyses were performed using real time PCR. DNAse I-treated total RNA was converted to cDNA with the SuperScript III kit (Invitrogen). Real-time PCR were performed using the Taq SYBR Green Supermix with ROX (Biorad) on an MX3000 instrument (Stratagene); beta-actin amplification was used as an internal reference for each sample. All primers were from SuperArray.
as §5

GPCR6A = target: T2, GPCR6A (Mus musculus, UniProt Q8K4Z6); details: Christiansen et al., 2007; cited from earlier work
T2 sequence (Q8K4Z6 21-928): T1 sequence (Q8K4Z6 21-928)

[9] = WT mice, 3 ng/g or 30 ng/g daily for 12 weeks, both doses

For “uncarboxylated osteocalcin: Recombinant osteocalcin bacterially produced as GST fusion, cleaved with thrombin; completely undercarboxylated at all three sites (YLGASVPSPDPLEPTREQCELNPACDELSDQYGLKTAYKRIYGITI)”, the testosterone secretion (testis explants) was “dose-dependent increase”, the tyrosine phosphorylation (TM3 Leydig cells [1]; listed as Osteocalcin) was “did not induce” and the tyrosine phosphorylation (TM3 Leydig cells [1]; listed as osteocalcin) was “not in osteocalcin treated cells”. The “competition of osteocalcin binding” value (GPRC6a; excess (100 fold) of unlabeled competitor, WT testis sections) was “competed away”, the serum testosterone levels (WT mice [2]; WT mice injected daily, compared to vehicle-injected mice) was “increased” and the sperm cell apoptosis (WT mice [2]; [9]) was “decreased”. For the same molecule, the sperm count (WT mice [2]; [9]) was “significantly increased”, the testis weight (WT mice [2]; [9]) was “significantly increased” and the “expression of StAR, Cyp11a, Cyp17 and 3β-HSD” value (Leydig cell cultures) was “increased”. The “circulating levels of testosterone” value (WT mice [3]) was “increased”, the cAMP production (TM3 Leydig cells [4]; listed as Osteocalcin) was “consistently induced” and the cAMP production (TM3 Leydig cells [4]; listed as osteocalcin) was “increased”. For the same molecule, the testosterone secretion (primary Leydig cells [5]) was “dose-dependent increase”, the intracellular calcium accumulation (primary Leydig cells [6]) was “did not induce” and the CREB phosphorylation (Leydig cells) was “favors”. For the same molecule, the “ERK activation (ERK1/2 phosphorylation)” value (TM3 Leydig cells [7]; listed as Osteocalcin) was “did not induce”, the “ERK activation (ERK1/2 phosphorylation)” value (TM3 Leydig cells [7]; listed as osteocalcin) was “absence of ERK1/2 phosphorylation” and the “expression of StAR, Cyp11a and Cyp17” value (TM3 Leydig cells [8]) was “specifically increased”.

In the case of `NCCC[C@H](N)C(=O)O` [ornithine], the “activation of GPCR6A” value (GPCR6A) is given as “activate”.

In the case of “biotinylated osteocalcin: biotinylated osteocalcin used as a ligand in binding assays on mouse testes (YLGASVPSPDPLEPTREQCELNPACDELSDQYGLKTAYKRIYGITI; ends and bridges not checked; also: biotinylated, site not given here)”, the “binding to GPRC6a-deficient testes” value (GPRC6a; GPRC6a-deficient testis sections) is reported as “no binding was detected” and the “binding to Leydig cells” value (GPRC6a; WT mouse testis sections) is reported as “bound”.

For `N=C(N)NCCC[C@H](N)C(=O)O` [arginine], the “activation of GPCR6A” value (GPCR6A) is given as “activate”.

In the case of `NCCCC[C@H](N)C(=O)O` [lysine], the “activation of GPCR6A” value (GPCR6A) is listed as “activate”.
